Reference: US9937153B2, “Oral pharmaceutical formulation of omarigliptin” (Merck Sharp & Dohme Corp., priority 2013, dated 2018)

What was measured:
[1] = Comparative salt stability of pharmaceutical formulations after 1 week; assay type: physicochemical; conditions: formulation as in Example 3
Procedure: Samples were made with 1% Citric Acid or Na2CO3 by first coating a mortar with mannitol. Omarigliptin was then triturated using the mortar and pestle with 0.1000 g mannitol then with 0.1000 g mannitol & 0.1000 g citric acid or Na2CO3 and then with equal amounts mannitol. The triturate was added to the remaining ingredients and blended initially with mortar and pestle and then transferred into a glass bottle and blended with a blender at medium speed for 15 mins. Magnesium stearate was passed through a 250 micron screen and the required quantity was dispensed and added to the powders in the bottle. The mixture was blended for 1 minute at medium speed. Tablets were compressed using a press having ¼″ normal concave punches at 100 mg unit weight:
Fumarate, phosphate and hydrochloride salts of omarigliptin were made and used in the manufacture of pharmaceutical formulations as described in Example 3. The pharmaceutical formulations containing the fumerate, phosphate and hydrochloride salts of omarigliptin as well as pharmaceutical formulations containing the free base were tested under various conditions for stability.

[2] = Formulation work on chemical stability of omarigliptin; assay type: physicochemical
From the text: One concern with developing an oral pharmaceutical formulation of omarigliptin is the chemical stability of the compound. […] Also omarigliptin stability is critically sensitive to drug loading with lower drug loadings becoming increasingly unstable in any formulation drug product. […] This degradation process with respect to free amines is described in Robertson et al., Maillard's Reaction and its Impliations for Amine Drugs in the Pharmaceutical Industry, Digital Edition of American Pharmaceutical Review, Volume 15, Issue 3, April 2012.

Compound	% Area ([1]; 5° C./50% RH closed) [%]	% LC ([1]; 5° C./50% RH closed) [%]	% Area ([1]; 50° C./75% RH/open) [%]	% LC ([1]; 50° C./75% RH/open) [%]	Total Degs. (Area %) ([1]; 50° C./75% RH/open)	% Area ([1]; 50° C./closed) [%]	% LC ([1]; 50° C./closed) [%]	Total Degs. (Area %) ([1]; 50° C./closed)	sensitivity to oxidation [2]	sensitivity to acid and base catalyzed hydrolysis ([2]; early formulation work)	sensitivity to Maillard degradation (browning) ([2]; with excipients or other impurities that contain reducible sugar impurities)
CS(=O)(=O)n1cc2c(n1)CN([C@H]1CO[C@H](c3cc(F)ccc3F)[C@@H](N)C1)C2 [Free Base I, (2R,3S,5R)-2-(2,5-Difluorophenyl)-5-[2-(methylsulfonyl)-2,6-dihydropyrrolo[3,4-c]pyrazol-5(4H)-yl]tetrahydro-2H-pyran-3-amine]	98.8	88.5	97.1	82.0	1.7	97.9	85.9	0.9			
CS(=O)(=O)n1cc2c(n1)CN([C@H]1CO[C@H](c3cc(F)ccc3F)[C@@H](N)C1)C2.O=C(O)/C=C/C(=O)O [Fumerate]	95.9	79.6	93.8	69.5	2.0	94.3	75.9	1.6			
CS(=O)(=O)n1cc2c(n1)CN(C1COC(c3cc(F)ccc3F)C(N)C1)C2.Cl (centres unmarked) [HCl]	98.69	75.5	95.3	62.5	3.6	97.6	71.8	1.3			
CS(=O)(=O)n1cc2c(n1)CN([C@H]1CO[C@H](c3cc(F)ccc3F)[C@@H](N)C1)C2 [omarigliptin, (2R,3S,5R)-2-(2,5-Difluorophenyl)-5-[2-(methylsulfonyl)-2,6-dihydropyrrolo[3,4-c]pyrazol-5(4H)-yl]tetrahydro-2H-pyran-3-amine]									sensitive to oxidation	sensitive to acid and base catalyzed hydrolysis	sensitive to Maillard degradation
Phosphate	96.8	76.5	92.0	54.4	4.8	94.0	70.8	2.9			
